These are literature values, as cited in patent US20090012284A1, “Process for the Preparation of a Piroxicam: Betacyclodextrin Inclusion Compound” (Chiesi Farmaceutici S.p.A., priority 2004, published 2009).

The conditions of the data set: pH 5, 37° C.

`CN1C(C(=O)Nc2ccccn2)=C(O)c2ccccc2S1(=O)=O` [Piroxicam]: the solubility in water is recorded as 0.003%.
